# From US9877938B2 (priority 2014, dated 2018)
# What was measured:
# [1] = tested on: male mice (C57BL/6) fed high-fat diet; test: Histological examination of liver, WAT, BAT and kidney; assay type: in vivo; details: HFD mice, 10 weeks
# Description: (§1) As feed, high-fat diet (60% of calories from fat; Research Diet Inc., New Brunswick, N.J.) and water were fed ad libitum for 10 weeks. Herein, the water fed contained the samples prepared in Examples 1-2 (3), 2-1, 2-4-1, 2-4-2 and 2-5. As a positive control, metformin (M-072, Sigma) (250 mg/kg) was used, and as a control, the samples prepared in Comparative Examples 1-1, 2-3-2, 2-5-1, 2-5-2 and 2-6 were used.
# (§2) At 10 weeks of high-fat diet feeding, the mice were sacrificed by cervical dislocation to obtain serum. For histological examination, the liver, white adipose tissue (WAT), brown adipose tissue (BAT) and kidney were fixed with formalin (50-00-0, Junsei, Japan), and the remaining organs were stored at −70° C. The blood sampled from the heart was coagulated to obtain serum which was then stored at −70° C.
# For histological examination, the major organs and adipose were fixed in 4% neutral buffered formalin and embedded in paraffin blocks, and the paraffin blocks were sectioned at 5 μm and stained with hymatoxylin (MHS-16, Sigma-Aldrich, USA) and eosin (HT110116, Sigma-Aldrich). The prepared tissue samples were mounted in glycerin gel mounting media (SP15-100, Fisher Scientific, USA), covered with cover glass, and observed with a microscope (IX71, OLYMPUS, USA). The tissue was imaged with the camera equipped in the microscope.
# [2] = tested on: male mice (C57BL/6) fed high-fat diet; test: Body weight and body weight gain of high-fat diet mice; assay type: in vivo; details: for Body weight gain, Mean: HFD mice, metformin 250 mg/kg; for body weight gain compared to high-fat diet (HFD) alone (in words): at 8 weeks after HFD feeding; for Body weight gain: mean
# Description: (§3) Using 8-week-old male mice (C57BL/6) (purchased from CoreTech), anti-diabetic candidate materials were evaluated using a GTT (Glucose Tolerance Test) that is a typical method for diagnosis of diabetes.
# (§4) Mice were housed at a temperature of 22±2° C. and a relative humidity of 55-60% with 12-hr light/12-hr dark cycles. Five animals were allotted to each group, and mice from the same mother were grouped into one group, because male mice tend to fight together.
# as §1
# (§5) For reference, each of the samples prepared in Examples 2-4-1, 2-4-2 and 2-5 was set to the amount to be taken by an adult (60 kg) for 3 days, and the amount was converted into a mouse dose (12-fold/kg, see the US NIH guidance), thereby preparing animal feed. Namely, the amount to be taken by an adult (60 kg) for 3 days is 180-day dose/kg, which corresponds to 15-day dose/kg for mice. Thus, the amount corresponds to 750-day dose/mouse (20 g), because the average weight of mice is about 20 g. Thus, one mouse was allowed to take 1/750 of the prepared sample each day.
# (§6) In addition, each of the samples prepared in Examples 1-2 (3) and 2-1 was set to the amount to be taken by an adult (60 kg) for 2 days, and the amount was converted into a mouse dose (12-fold/kg, see the US NIH guidance), thereby preparing animal feed. Namely, the amount to be taken by an adult (60 kg) for 2 days is 120-day dose/kg, which corresponds to 10-day dose/kg for mice. Thus, the amount corresponds to 500-day dose/mouse (20 g), because the average weight of mice is about 20 g. Thus, one mouse was allowed to take 1/500 of the prepared sample each day.
# The diet intake and the body weight gain were measured weekly for 8 weeks. The body weight and the diet intake were measured immediately before first drug administration, and then measured at one-week intervals.
# (§7) Meanwhile, experimental analysis results were expressed as mean±S.E.M., and the significance between test groups was statistically processed using Student T-TEST, and then the significance was verified at *P<0.05.
# [3] = tested on: male mice (C57BL/6) fed high-fat diet; test: Blood biochemistry (triglyceride, AST, ALT) in high-fat diet mice; assay type: in vivo
# Description: as §1, §5, §6
# In blood biochemistry, insulin (AKRIN-011T, Shibayagi, Japan), glucose (AM202, Asan Pharmaceutical Co., Ltd., Korea), triglyceride (AM157, Asan Pharmaceutical Co., Ltd.), total cholesterol (AM202, Asan Pharmaceutical Co., Ltd.), AST and ALT (Asan Pharmaceutical Co., Ltd.) were analyzed using enzymatic assay kits.
# as §2, §7
# [4] = tested on: male mice (C57BL/6) fed high-fat diet; test: Glucose tolerance test (GTT) in high-fat diet mice; assay type: in vivo; details: for fasting glucose level (in words) / glucose control ability in GTT compared with HFD alone (in words): 8 weeks of HFD; for fasting glucose level (in words): 8 h fasting, compared with HFD alone, normal mice or other group; for glucose control ability in GTT compared with HFD alone (in words): glucose 1 g/kg i.p.; for Glucose level: mean
# Description: as §3, §4, §1, §5, §6
# At 8 weeks of high-fat diet feeding, a glucose tolerance test (GTT) was performed. For 8 hours for the test, mice were fasted. Then, blood was sampled from the tail vein, and initial blood glucose levels were measured with a blood glucose meter (AUTO-CHEK, Diatech Korea). Then, glucose was administered intraperitoneally to the mice at a concentration of 1 g/kg, and after 30 min, 60 min, 90 min and 120 min, blood was sampled from the mice, followed by measurement of blood glucose levels (each group consisting of five animals).
# as §7
# plasma [5] = test: Anticoagulant activity: prothrombin time (PT), Sysmex CA-1500; assay type: biochemical, human; details: 20 μl sample + 80 μl plasma, test material g/dL as in label, Asp 7.5 mg/ml, N=3
# Description: (§8) Antithrombotic (anticoagulant) activity was evaluated according to a previously reported method. Each of thromborel S, actin and thrombin, which are reagents for Sysmex CA-1500 for analysis of PT, aPTT and TT, was mounted in Sysmex CA-1500 (Siemens Healthcare, Germany) which is an automated blood coagulation test device. According to the automated procedure of the test device, clotting time (sec) (prothrombin time (PT), activated partial thromboplastin time (aPTT) and thrombin time (TT)) was measured. A sufficient amount of a sample for each of the three analyses was about 400 uL of an 80:20 mixture of plasma and a test substance.
# (§9) The isolated plasma was used in an experiment in a fresh state within 5-6 hours.
# (§10) In this experiment, for the relative comparison of the measured clotting time (sec) (PT, aPTT and TT) between test groups, clotting time prolongation (%) relative to triple distilled water (purified water) that is a normal control test sample was statistically analyzed. For statistical analysis, the […] anticoagulant activities of test materials were comparatively analyzed using SPSS IBM version 21.0 by one-way ANOVA at p<0.05, and significance comparison between groups was performed by Duncan's test.
# The aspirin solution was immediately used at room temperature in a light-shielded state or was cold-stored.
# As a control, aspirin was used, and as a vehicle control, triple distilled water (purified water) was used instead of the sample.
# plasma [6] = test: Anticoagulant activity: activated partial thromboplastin time (aPTT), Sysmex CA-1500; assay type: biochemical, human; details: Table 4; 20 μl sample + 80 μl plasma; test material g/dL as in label; Asp 7.5 mg/ml; N=3
# Description: as §8, §9, §10
# The aspirin solution was immediately used at room temperature in a light-shielded state or was cold-stored. […]
# [7] = 8 weeks, sample in drinking water (1/500 per day), Tables 6, 9, 12
# [8] = HFD mice serum, compared with reference diet, HFD or other group
smiles,measurement,setting,value
NCCS(=O)(=O)O [DT15],accumulation of adipose in brown adipose tissue (histology),[1],decreased
same,development of fatty liver (histology),[1],decreased
same,nephrotoxicity (histology),[1]; kidney,did not appear
same,"Body weight gain, Mean","[2]; 2 weeks, sample in drinking water (1/500 per day), Tables 6, 9, 12",4.40 g
same,"Body weight gain, Mean",[2]; [7],11.58 g
same,body weight gain compared to high-fat diet (HFD) alone (in words),[2],significant reduction in body weight gain
same,triglyceride level (in words),"[3]; HFD mice serum, compared with normal/reference diet or other group",significantly lower than that of DT19
same,ALT level (in words),[3]; [8],lower than those of DT19
same,AST level (in words),[3]; [8],lower than those of DT19
same,ALT level,"[3]; blood, mean",14.02 IU/L
same,AST level,"[3]; blood, mean",98.96 IU/L
same,Triglyceride level,"[3]; blood, mean",53.62 mg/dL
same,fasting glucose level (in words),[4],"lower than that of the mice administered with high-fat diet (HFD), and were similar to the blood glucose levels of normal mice"
same,glucose control ability in GTT compared with HFD alone (in words),[4],significantly higher than that of the group administered with HFD alone
same,Glucose level,[4]; GTT 0 min (fasting),121.25 mg/dL
same,Glucose level,[4]; GTT 30 min,335.25 mg/dL
same,Glucose level,[4]; GTT 60 min,295.25 mg/dL
same,Glucose level,[4]; GTT 90 min,193.75 mg/dL
same,Glucose level,[4]; GTT 120 min,126.25 mg/dL
"O=C(CO)[C@@H](O)[C@H](O)[C@H](O)CO [Fruc 12.4, fructose]","PT clotting time prolongation relative to purified water, Mean",plasma [5]; Table 4,0.54%
same,"aPTT clotting time prolongation relative to purified water, Mean",plasma [6],0.58%
"CC(=O)Oc1ccccc1C(=O)O [Asp, aspirin]","PT clotting time prolongation relative to purified water, Mean",plasma [5]; Table 2,9.90%
"NCCS(=O)(=O)O [DT19, taurine, reference compound]","Body weight gain, Mean",[2]; [7],9.52 g
same,body weight gain compared to high-fat diet (HFD) alone (in words),[2],significant reduction in body weight gain
same,fasting glucose level (in words),[4],"lower than that of the mice administered with high-fat diet (HFD), and were similar to the blood glucose levels of normal mice"
same,glucose control ability in GTT compared with HFD alone (in words),[4],significantly higher than that of the group administered with HFD alone
"CN(C)C(=N)N=C(N)N [Metformin, metformin]","Body weight gain, Mean","[2]; 1 week, Table 15 experiment, sample in drinking water (1/750 per day)",2.445 g
same,Body weight gain,[2]; 2 weeks,2.503 g
same,Body weight gain,[2]; 3 weeks,4.020 g
same,"Body weight gain, Mean","[2]; 4 weeks, Table 15 experiment, sample in drinking water (1/750 per day)",4.600 g
same,Body weight gain,[2]; 4 weeks,4.600 g
same,Body weight gain,[2]; 5 weeks,6.093 g
same,Body weight gain,[2]; 6 weeks,7.250 g
same,Body weight gain,[2]; 7 weeks,6.263 g
same,"Body weight gain, Mean","[2]; 8 weeks, Table 15 experiment, sample in drinking water (1/750 per day)",8.238 g
"O=C(CO)[C@@H](O)[C@H](O)[C@H](O)CO [Fruc 6.2, fructose]","PT clotting time prolongation relative to purified water, Mean",plasma [5]; Table 4,0.54%
same,"aPTT clotting time prolongation relative to purified water, Mean",plasma [6],−0.20%
